{"source": "paper PMC7332124", "about": "“Design, One Pot Synthesis and Molecular Docking Studies of Substituted-1H-Pyrido[2,1-b] Quinazolines as Apoptosis-Inducing Anticancer Agents” (Asian Pacific Journal of Cancer Prevention : APJCP, 2020)", "assay_type_in_all_cases": "cell-based, human", "key": {"[1]": {"tested_on": "A549 cells", "assay": "DAPI nuclear staining", "details": "0.5, 1, 2.5 and 5 µM, 72 h", "description": "After treatment with compound 4q for 72 h, lung cancer cell line A549 were washed with PBS then fixed with 4% formaldehyde for 10 min and then permeabilized with 0.1% Tween 20 followed by staining with 1 µM DAPI. Control and treated cells were observed under fluorescence microscope with excitation at 359 nm and emission at 461 nm using DAPI filter at 200X magnification (Sgorbati et al., 1986)."}, "[2]": {"tested_on": "A549 cells", "assay": "Mitochondrial membrane potential (JC-1, flow cytometry)", "details": "0.5-5 µM, 72 h", "description": "The cyanine dye JC-1 (5,5′,6,6′-tetrachloro-1,1′,3,3′-tetraethylbenzimidazolylcarbocyanine iodide) is a cell-penetrating dye that facilitates discrimination of energized and de energized mitochondria thus, high mitochondrial potential shifts its emission fluorescence from green to red (Vundru et al., 2013).This phenomenon was assessed by flow cytometry (FACS). A549 cells (1.5x10^6 cells/ml) were seeded in 12 well plates and allowed to adhere for overnight. Then the cells were incubated with compound 4q at 0.5, 1, 2.5 and 5 µM concentrations for 72 h. Cells were collected and washed with PBS and resuspended in solution of JC- 1 (1 µM) and incubated for 30 min in incubator at 37 °C. The cells were washed twice with PBS and cells were trypsinized, centrifuged and 10,000 events were analyzed by flow cytometer (BD FACSVerse™, USA)."}, "[3]": {"tested_on": "A549 cells", "assay": "Cell cycle analysis (propidium iodide, flow cytometry)", "description": "In order to reveal whether arrest of cell cycle was mechanistically responsible for sensitizing lung cancer cells towards apoptosis, the flow cytometric analysis was performed to analyse the distribution of the cell population in various cell cycle phases (Mani et al., 2017). Here, A549 cancer cells were incubated with compound 4q at various concentrations ranging from 0.5 to 5 µM for 48 h. Untreated and treated cells were harvested, washed and fixed overnight in 70% ethanol in PBS at -20 °C. Fixed cells were pelleted and stained with cell cycle analysis reagent propidium iodide (50 μg/ml) with RNase A for 20 min at 37 °C in dark and about 10,000 events were acquired and analyzed on a flow cytometer (Kumar et al., 2018a)."}, "[4]": {"tested_on": "A549 cells", "assay": "Annexin V-FITC/PI apoptosis assay (flow cytometry)", "details": "72 h", "source_text": "A fundamental part of apoptosis is the flipping of phosphatidyl serine (PS) from the inner surface to the outer surface of the plasma layer of the cells. PS is a component of phospholipid usually located on the cytoplasmic surface of the cell layer in viable cells. When the apoptotic condition is initiated in a cell, PS is no more restricted to the cytosolic region and will flip on the surface of the cell. Translocation of PS is considered to be a hall mark of apoptosis (Zhu et al., 2015). To experimentally address this phenomenon briefly, 1 X 10^5 cells were seeded in a 12-well plate and treated with different concentration of compound 4q and incubated for 72 h. Then untreated and treated cells were harvested and the cells were processed with annexin V-FITC and Propidium Iodide (PI) staining (Bio Legend), according to the manufacturer’s instructions. Further, early/late apoptosis and necrosis parameters were analyzed with quadrant statistics on propidium iodide-negative cells, fluorescein positive cells and propidium iodide-positive cells, respectively."}}, "note": "“Also recorded” adds a separate entry of the source."}
{"smiles": "C1=CC2=NC3=C(CCCC3)C(c3cn(Cc4ccccc4)c4ccccc34)N2C=C1", "note": "(stereo not drawn) [Compound 4i, 11-(1-benzyl-1H-indol-3-yl)-2,3,4, 11-tetrahydro-1H-pyrido [2,1-b] quinazoline]", "values": [{"measurement": "nuclear changes by DAPI staining", "setting": "[1]", "value": "chromatin condensation, nuclear fragmentation, and horse shoe shaped nucleus"}, {"measurement": "mitochondrial membrane potential (ΔΨm)", "setting": "[2]", "value": "significant collapse in the ΔΨm"}, {"measurement": "percentage of cells in G0/G1", "setting": "[3]; 5 µM, control 63.53%", "value": 80.02, "unit": "%"}, {"measurement": "cell cycle phase arrest", "setting": "[3]; 0.5 to 5 µM", "value": "arrests the A549 cancer cell lines at the G0/G1 phase; also recorded: G0/G1 arrest of the cell cycle"}, {"measurement": "percentage of early apoptotic cells (EA; AV+/PI-)", "setting": "[4]; 5 µM, control 4.08 %", "value": 26.90, "unit": "%"}, {"measurement": "apoptosis induction (Annexin V-FITC/PI)", "setting": "[4]; 0.5 to 5 µM", "value": "significant early apoptosis"}]}
